Test results taken from US20240368668A1, “SUBSTRATES AND BIOMARKERS OF ADAMTS7” (The Broad Institute, Inc., priority 2021, published 2024).
Square brackets hold non-standard residues; d marks the D form. Ends that are not written are not given here.

Tested on: mouse ADAMTS7
Test: TMT10 TAILS N-terminomics, SMC2 experiment (process replicates, trypsin/AspN digest)
Format: cell-based
In short: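 Full-length mouse ADAMTS7 (WT or E373Q mutant, C-terminal 3xFLAG) or luciferase was transduced via adenovirus, 50 MOI, into HCA-SMC (SMC1, SMC2) or HUVEC. SMC1: pooled media, technical triplicates 400 ug; SMC2: process triplicates 300 ug; HUVEC: process triplicates 200 ug, bFGF2 10 ng/ml.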

[1] = SMC2_TAILS HC, log fold change, mWT over mEQ
[2] = SMC2_TAILS HC, log fold change of N-terminal peptide, Ad-mADAMTS7 WT over EQ
[3] = log fold change, ADAMTS7 WT over EQ

Row | Substance | logFC.mWT.over.mEQ [1] | logFC.mWT.over.mEQ [3] | also measured
1 | FN1_99 (DKYTGNTYR; listed as Homo sapiens) | 1.43 | – | –
2 | VIM_276 (YESVAAKNLQ; listed as Homo sapiens) | – | – | logFC.mWT.over.mEQ [2]: 0.83
3 | VIM_433 (LVDTHSKR; listed as Homo sapiens) | – | 2.79 | –
4 | FSTL_1290 (LQKHQETA; listed as Homo sapiens) | 2.86 | – | –
5 | QSOX1_558 (VAAAPELAMGALELESR; listed as Homo sapiens) | – | 1.13 | –
6 | EIF4B_426 (QTGTSTTSSR; listed as Homo sapiens) | 5.12 | – | –
7 | FBLN2_665 (FSQVASNTIPLPLPQPNTCK; listed as Homo sapiens) | 1.89 | – | –
8 | CTSB_109 (WAFGAVEAIS; listed as Homo sapiens) | 1.73 | – | –
9 | TG_1017 (GASALLR; listed as Homo sapiens) | – | 3.05 | –
10 | SRGN_62 (GESNKIPR; listed as Homo sapiens) | – | 3.26 | –
11 | FOXG1_235 (LNKCFVKVPRHY; listed as Homo sapiens) | 3.34 | – | –
12 | HEG1_51 (GLELQLER; listed as Homo sapiens) | 0.65 | – | –
13 | ECM1_38 (FQEVGYAAPPSPPLSR; listed as Homo sapiens) | 1.57 | – | –
14 | SPOCK1_126 (HWVGPSNLVK; listed as Homo sapiens) | – | 0.93 | –
15 | EEF1G_23 (QYSGAQVR; listed as Homo sapiens) | 3.30 | – | –
16 | ECM1_108 (QEAVPLQK; listed as Homo sapiens) | 3.34 | – | –
17 | FN1_2113 (FVTHPGY; listed as Homo sapiens) | 1.57 | – | –
18 | APLP2_452 (LVETHLAR; listed as Homo sapiens) | 2.59 | – | –
19 | FN1_35 ([code q]MVQPQSPVAVSQSKPGCY; not fully specified (residue 2); listed as Homo sapiens) | 2.08 | – | –
20 | LOX_125 (FQAGYSTSR; listed as Homo sapiens) | 3.33 | – | –
21 | KRT28_2 (SLQFSNGSR; listed as Homo sapiens) | 2.22 | – | –
22 | SERPINH1_27 (AAAPGTAEKLSPKAATLAER; listed as Homo sapiens) | – | 3.30 | –
23 | CALU_176 (FTAFLHPEEY; listed as Homo sapiens) | 2.38 | – | –
24 | FN1_1780 (LQGLRPGSEYTVSVVALH; listed as Homo sapiens) | 2.01 | – | –
25 | ADAM10_86 (FKVETSNKVL; listed as Homo sapiens) | 2.74 | – | –

Row | Substance | logFC.mWT.over.mEQ [1] | logFC.mWT.over.mEQ [3] | also measured
26 | LOX_60 (LGSQYQPQR; listed as Homo sapiens) | 1.59 | – | –
27 | ACTN4_5 (HAANQSYQYGPSSAGNGAGGGGSMG; listed as Homo sapiens) | 2.64 | – | –
28 | VASN_138 (HIQPGAFDTLDR; listed as Homo sapiens) | – | 1.45 | –
29 | TGFBI_208 (GIVTVNCAR; listed as Homo sapiens) | – | 0.59 | –
30 | VASP_229 (AIAGAKLR; listed as Homo sapiens) | – | 4.56 | –
31 | STC2_239 (HGEAGHHLPEPSSR; listed as Homo sapiens) | – | 1.70 | –
32 | FN1_607 (SSSGPVEVFIT; listed as Homo sapiens) | 0.63 | – | –
33 | ZSCAN4_25 (FQQSQGPAVQR; listed as Homo sapiens) | – | – | logFC.mWT.over.mEQ [2]: 2.89
34 | EMSY_943 (QTVVQVLAVK; listed as Homo sapiens) | 0.92 | – | –
35 | STC2_244 (HHLPEPSSR; listed as Homo sapiens) | – | 1.35 | –
36 | SDC4_106 (LEENEVIPKR; listed as Homo sapiens) | – | 1.67 | –
37 | SRGN_60 (LPGESNKIPR; listed as Homo sapiens) | – | 3.25 | –
38 | TGFBI_24 (GPAKSPYQLVLQHSR; listed as Homo sapiens) | – | 0.71 | –
39 | SMOC1_35 (LISDRDPQCNLHCSR; listed as Homo sapiens) | – | 1.62 | –
40 | AMER2_654 (LAGTTIRATACH; listed as Homo sapiens) | 0.90 | – | –
41 | HEG1_224 (FQTKSGTAS; listed as Homo sapiens) | 3.25 | – | –
42 | FLNA_689 (VNKPAEFTV; listed as Homo sapiens) | 6.12 | – | –
43 | TGFBI_534 (EGVYTVFAPTNEAFR; listed as Homo sapiens) | – | 0.82 | –
44 | TGFBI_276 (TLLAPT[code n]EAFEKIPSETLNR; not fully specified; listed as Homo sapiens) | – | 0.66 | –
45 | ECM1_44 (AAPPSPPLSR; listed as Homo sapiens) | 2.54 | – | –
46 | VIM_322 (QVQSLTCEV; listed as Homo sapiens) | – | – | logFC.mWT.over.mEQ [2]: 1.11
47 | FN1_1805 (LIGTQSTAIPAPT; listed as Homo sapiens) | 1.73 | – | –
48 | CCL2_28 (INAPVTCCYNFTNR; listed as Homo sapiens) | 1.46 | – | –
49 | DIS3L_75 (FPELKGIIFMQTACQAVQHQR; listed as Homo sapiens) | 1.78 | – | –
50 | FN1_1693 (LQPTVEYVVSVYAQNPSG; listed as Homo sapiens) | 2.05 | – | –

Row | Substance | logFC.mWT.over.mEQ [1] | logFC.mWT.over.mEQ [3] | also measured
51 | TGFBI_50 (AVQKVIGTNR; listed as Homo sapiens) | – | 0.64 | –
52 | BMPER_43 (LTGSVAKCENEG; listed as Homo sapiens) | 2.43 | – | –
53 | THBS1_972 (QNDPNWVVR; listed as Homo sapiens) | – | 3.59 | –
54 | TGFBI_497 (VLTPPMGTVMDVLKGDNR; not fully specified (residue 6); listed as Homo sapiens) | – | 0.61 | –
55 | ACTG1_105 (LTEAPLNPKANR; listed as Homo sapiens) | 2.11 | – | –
56 | CAP1_300 (FSAPKPQTSPSPKR; listed as Homo sapiens) | 2.81 | – | –
57 | ADNP2_375 (SQPVGPVNK; listed as Homo sapiens) | 0.75 | – | –
58 | FLNC_2649 (FVGQKNSFTV; listed as Homo sapiens) | 3.97 | – | –
59 | VCAN_3367 (FKNSSSAK; listed as Homo sapiens) | – | – | logFC.mWT.over.mEQ [2]: 1.51
60 | SRGN_50 (LEEKGPMFELLPGESNKIPR; listed as Homo sapiens) | – | 3.28 | –
61 | SRGN_51 (EEKGPMFELLPGESNKIPR; listed as Homo sapiens) | – | 1.79 | –
62 | ADAM9_74 (GKEHIIHLER; listed as Homo sapiens) | 4.31 | – | –
63 | STC1_37 (QNSAEVVR; listed as Homo sapiens) | – | 4.78 | –
64 | TGFBI_43 ([code q]HGPNVCAVQKVIGTNR; not fully specified; listed as Homo sapiens) | – | 0.75 | –
65 | LOXL1_157 (SVSASAFASTYR; listed as Homo sapiens) | 2.90 | – | –
66 | TLN1_1501 (HTSALCNSCR; listed as Homo sapiens) | – | 1.48 | –
67 | DBN1_434 (APVEPATA; listed as Homo sapiens) | 1.57 | – | –
68 | APOA1_86 (EQLGPVTQEFW; listed as Homo sapiens) | 1.88 | – | –
69 | CEP192_728 (DKSTAGR; listed as Homo sapiens) | 2.95 | – | –
70 | KCND1_436 (RLAKSGTTNAFLQYKQNGGLE; listed as Homo sapiens) | 1.74 | – | –
71 | TGFBI_524 (SAGLTETLNR; listed as Homo sapiens) | – | 0.66 | –
72 | FSTL1_290 (LQKHQETA; listed as Homo sapiens) | – | – | SMC2 logFC.mWT.over.mEQ (TAILS HC Overlap, SMC2, log fold change mouse ADAMTS7 WT over catalytically inactive EQ): 2.86
73 | LASP1_182 (SYGGYKEPAAPVSIQR; listed as Homo sapiens) | 1.01 | – | –
74 | TMEM132A_52 (LLDAPEHFR; listed as Homo sapiens) | – | 2.95 | –
